In US9884832B2 (priority 2011, dated 2018):
Like-named read-outs stand apart in the source and are kept apart here.

Assays:
[1] = molecular target: AM2 S31N (serine→asparagine mutation at residue 31 in the M2 protein) (Influenza A virus, UniProt P0DOF5, S31N); format: cell-based, influenza virus A/Udorn/72
[2] = molecular target: AM2 V27A (valine→alanine mutation at residue 27 in the M2 protein) (Influenza A virus, UniProt P0DOF5, V27A); format: cell-based, influenza virus A/Udorn/72

Structure (SMILES)	S31N OOcyte Inhibition at 100 uM (%) ([1]; pH 5.5)	V27A OOcyte Inhibition at 100 uM (%) ([2]; pH 5.5)	S31N OOcyte Inhibition at 100 uM (%) [1]	V27A OOcyte Inhibition at 100 uM (%) [2]
COc1ccccc1CNC12CC3CC(CC(C3)C1)C2 [Example 29, Adamantan-1-yl-(2-methoxy-benzyl)-amine]	B (key: (A)=31-95%; (B)=0-30%)	B (key: (A)=31-95%; (B)=0-30%)	–	–
c1csc(-c2ccc(CNC34CC5CC(CC(C5)C3)C4)cc2)c1 [Example 29a, N-(4-(Thiophen-2-yl)benzyl)adamantan-1-amine methanesulfonate]	–	–	A (key: (A)=31-95%; (B)=0-30%)	B (key: (A)=31-95%; (B)=0-30%)
O=[N+]([O-])c1ccccc1CNC12CC3CC(CC(C3)C1)C2 [Example 30, Adamantan-1-yl-(2-nitro-benzyl)-amine]	B (key: (A)=31-95%; (B)=0-30%)	B (key: (A)=31-95%; (B)=0-30%)	–	–
c1cc(CNC23CC4CC(CC(C4)C2)C3)cc(-c2ccco2)c1 [Example 30a, N-(3-(Furan-2-yl)benzyl)adamantan-1-amine]	–	–	B (key: (A)=31-95%; (B)=0-30%)	A (key: (A)=31-95%; (B)=0-30%)
Oc1cccc(CNC23CC4CC(CC(C4)C2)C3)c1 [Example 31, 3-(Adamantan-1-ylaminomethyl)-phenol]	B (key: (A)=31-95%; (B)=0-30%)	A (key: (A)=31-95%; (B)=0-30%)	–	–
c1coc(-c2ccc(CNC34CC5CC(CC(C5)C3)C4)cc2)c1 [Example 31a, N-(4-(Furan-2-yl)benzyl)adamantan-1-amine]	–	–	A (key: (A)=31-95%; (B)=0-30%)	B (key: (A)=31-95%; (B)=0-30%)
COc1ccc(CN(C)C23CC4CC(CC(C4)C2)C3)cc1 [Example 32, Adamantan-1-yl-(4-methoxy-benzyl)-methyl-amine]	B (key: (A)=31-95%; (B)=0-30%)	B (key: (A)=31-95%; (B)=0-30%)	–	–
Cc1ccc(-c2ccc(CNC34CC5CC(CC(C5)C3)C4)cc2)o1.Cl [Example 32a, N-(4-(5-Methylfuran-2-yl)benzyl)adamantan-1-amine hydrochloride]	–	–	A (key: (A)=31-95%; (B)=0-30%)	B (key: (A)=31-95%; (B)=0-30%)
CC(=O)Oc1ccc(CNC23CC4CC(CC(C4)C2)C3)cc1 [Example 33, Acetic acid 4-(adamantan-1-ylaminomethyl)-phenyl ester]	A (key: (A)=31-95%; (B)=0-30%)	B (key: (A)=31-95%; (B)=0-30%)	–	–
Cc1noc(C)c1-c1ccc(CNC23CC4CC(CC(C4)C2)C3)cc1 [Example 33a, N-(4-(3,5-Dimethylisoxazol-4-yl)benzyl)adamantan-1-amine]	–	–	B (key: (A)=31-95%; (B)=0-30%)	B (key: (A)=31-95%; (B)=0-30%)
O=C(Oc1ccc(CNC23CC4CC(CC(C4)C2)C3)cc1)C1CC1 [Example 34, Cyclopropanecarboxylic acid 4-(adamantan-1-ylaminomethyl)-phenyl ester]	B (key: (A)=31-95%; (B)=0-30%)	B (key: (A)=31-95%; (B)=0-30%)	–	–
c1cc(CNC23CC4CC(CC(C4)C2)C3)cc(-c2cccs2)c1 [Example 34a, N-(3-(thiophen-2-yl)benzyl)adamantan-1-amine]	–	–	B (key: (A)=31-95%; (B)=0-30%)	A (key: (A)=31-95%; (B)=0-30%)
c1cnn(-c2ccc(CNC34CC5CC(CC(C5)C3)C4)cc2)c1 [Example 35, Adamantan-1-yl-(4-pyrazol-1-yl-benzyl)-amine]	B (key: (A)=31-95%; (B)=0-30%)	B (key: (A)=31-95%; (B)=0-30%)	–	–
c1cn(-c2ccc(CNC34CC5CC(CC(C5)C3)C4)cc2)cn1 [Example 36, Adamantan-1-yl-(4-imidazol-1-yl-benzyl)-amine]	B (key: (A)=31-95%; (B)=0-30%)	B (key: (A)=31-95%; (B)=0-30%)	–	–
O=C(Oc1ccc(CNC23CC4CC(CC(C4)C2)C3)cc1)c1cccs1 [Example 37, Thiophene-2-carboxylic acid 4-(adamantan-1-ylaminomethyl)-phenyl ester]	A (key: (A)=31-95%; (B)=0-30%)	B (key: (A)=31-95%; (B)=0-30%)	–	–
Oc1cc(OCc2ccccc2)ccc1CNC12CC3CC(CC(C3)C1)C2 [Example 37a, 2-(Adamantan-1-ylaminomethyl)-5-benzyloxy-phenol]	–	–	A (key: (A)=31-95%; (B)=0-30%)	B (key: (A)=31-95%; (B)=0-30%)

Structure (SMILES)	S31N OOcyte Inhibition at 100 uM (%) ([1]; pH 5.5)	V27A OOcyte Inhibition at 100 uM (%) ([2]; pH 5.5)	S31N OOcyte Inhibition at 100 uM (%) [1]	V27A OOcyte Inhibition at 100 uM (%) [2]
CN(CCC#N)c1ccc(CNC23CC4CC(CC(C4)C2)C3)cc1 [Example 38, 3-((4-((Adamantan-1-ylamino)methyl)phenyl)(methyl)amino)propanenitrile]	A (key: (A)=31-95%; (B)=0-30%)	B (key: (A)=31-95%; (B)=0-30%)	–	–
c1ccc2cc(COc3ccc(CNC45CC6CC(CC(C6)C4)C5)cc3)ccc2c1 [Example 38a, N-(4-(naphthalen-2-ylmethoxy)benzyl)adamantan-1-amine]	–	–	B (key: (A)=31-95%; (B)=0-30%)	B (key: (A)=31-95%; (B)=0-30%)
NC(=O)COc1ccc(CNC23CC4CC(CC(C4)C2)C3)cc1 [Example 39, 2-(4-((Adamantan-1-ylamino)methyl)phenoxy)acetamide]	B (key: (A)=31-95%; (B)=0-30%)	B (key: (A)=31-95%; (B)=0-30%)	–	–
c1cnc2ccc(CNC34CC5CC(CC(C5)C3)C4)cc2c1 [Example 39a, Adamantan-1-yl-quinolin-6-ylmethyl-amine]	–	–	A (key: (A)=31-95%; (B)=0-30%)	B (key: (A)=31-95%; (B)=0-30%)
c1nc(-c2ccc(CNC34CC5CC(CC(C5)C3)C4)cc2)no1 [Example 40, Adamantan-1-yl-(4-[1,2,4]oxadiazol-3-yl-benzyl)-amine]	A (key: (A)=31-95%; (B)=0-30%)	B (key: (A)=31-95%; (B)=0-30%)	–	–
COc1ccc2cc(CNC34CC5CC(CC(C5)C3)C4)ccc2c1 [Example 40a, Adamantan-1-yl-(6-methoxy-naphthalen-2-ylmethyl)-amine]	–	–	B (key: (A)=31-95%; (B)=0-30%)	A (key: (A)=31-95%; (B)=0-30%)
Brc1ccc(CNC23CC4CC(CC(C4)C2)C3)cc1 [Example 41, N-(4-Bromobenzyl)adamantan-1-amine]	A (key: (A)=31-95%; (B)=0-30%)	B (key: (A)=31-95%; (B)=0-30%)	–	–
c1cc2cc(CNC34CC5CC(CC(C5)C3)C4)ccc2s1 [Example 41a, N-(benzo[b]thiophen-5-ylmethyl)adamantan-1-amine]	–	–	B (key: (A)=31-95%; (B)=0-30%)	A (key: (A)=31-95%; (B)=0-30%)
c1cc(-c2ccc(CNC34CC5CC(CC(C5)C3)C4)cc2)co1 [Example 42, N-(4-(Furan-3-yl)benzyl)adamantan-1-amine]	A (key: (A)=31-95%; (B)=0-30%)	B (key: (A)=31-95%; (B)=0-30%)	–	–
O=c1ccc2cc(CNC34CC5CC(CC(C5)C3)C4)ccc2o1 [Example 42a, 6-((adamantan-1-ylamino)methyl)-2H-chromen-2-one]	–	–	B (key: (A)=31-95%; (B)=0-30%)	B (key: (A)=31-95%; (B)=0-30%)
CC(=O)c1sccc1-c1ccc(CNC23CC4CC(CC(C4)C2)C3)cc1 [Example 43, 1-(3-(4-((Adamantan-1-ylamino)methyl)phenyl)thiophen-2-yl)ethanone]	A (key: (A)=31-95%; (B)=0-30%)	A (key: (A)=31-95%; (B)=0-30%)	–	–
c1csc(-c2ccc(CNC34CC5CC(CC(C5)C3)C4)cc2)c1 [Example 44, N-(4-(Thiophen-2-yl)benzyl)adamantan-1-amine]	A (key: (A)=31-95%; (B)=0-30%)	B (key: (A)=31-95%; (B)=0-30%)	–	–
CC(=O)c1ccc(CNC23CC4CC(CC(C4)C2)C3)cc1 [Example 44a]	–	–	B (key: (A)=31-95%; (B)=0-30%)	B (key: (A)=31-95%; (B)=0-30%)
Oc1ccc(CNC23CC4CC(CC(C4)C2)C3)cc1O [Example 45, 4-(Adamantan-1-ylaminomethyl)-benzene-1,2-diol]	B (key: (A)=31-95%; (B)=0-30%)	A (key: (A)=31-95%; (B)=0-30%)	–	–
O=C1CCCN1c1ccc(CNC23CC4CC(CC(C4)C2)C3)cc1 [Example 45a, 1-(4-((adamantan-1-ylamino)methyl)phenyl)pyrrolidin-2-one]	–	–	A (key: (A)=31-95%; (B)=0-30%)	B (key: (A)=31-95%; (B)=0-30%)
Oc1ccc(CNC23CC4CC(CC(C4)C2)C3)c(O)c1 [Example 46, 4-(Adamantan-1-ylaminomethyl)-benzene-1,3-diol]	A (key: (A)=31-95%; (B)=0-30%)	A (key: (A)=31-95%; (B)=0-30%)	–	–
